Patent US20090050143A1, “MEDICINAL FORMULATION CONTAINER WITH A TREATED METAL SURFACE” (priority 2006, published 2009)
Blank lines part the entries; values can stand above or below the molecule they belong to.

Legend:
Type in all cases: physicochemical
[1] = Triamcinolone acetonide remaining after storage with aluminum oxide powder (HPLC)
Experimental: Aluminum oxide powder (Aldrich, neutral, activated Brockmann I, 150 mesh), which mimics aluminum oxide existing on the inner surface of aluminum containers was surface treated by being immersed in a 0.1% w/w solution of A1 in methyl tertiary butyl ether (analytical reagent grade) for 30 minutes while exposed to ultrasonic agitation. The methyl tertiary butyl ether solution was decanted and the powder was allowed to air dry. A triamcinolone stock solution (4 mM) was prepared by adding triamcinolone acetonide to ethanol. Approximately 0.1 g of treated powder was then placed in a vial containing 2 mL of triamcinolone stock solution and stored at 70° C. An extract of the triamcinolone solution was taken after one day of storage and analyzed using high performance liquid chromatography to determine remaining drug content. The amount of drug remaining is reported (in Table 1) as a percentage of the initial amount of drug present and was determined as the average of 3 independent measurements.
Aluminum oxide powder was surface treated and tested as described above with a variety of other organic surface treatment compounds. The type of compound, the amount of triamcinolone acetonide (TA) remaining after 1 day storage, and the percentage of aluminum oxide (AO) powder remaining chemically treated after exposure to drug solution in shown in Table 1.
Approximately 0.1 g of untreated aluminum oxide powder was placed in a vial containing 2 mL of triamcinolone stock solution and stored at 70° C. An extract of the triamcinolone solution was taken after one day of storage and analyzed using high performance liquid chromatography to determine remaining drug content.

[2] = Visual observation of the inside surface of the metering tanks
[3] = Valve deposition measurement
Description: Metered dose inhalers (MDIs) were fired 122 times to waste. The MDI was shaken for not less than 3 seconds prior to each actuation with a delay of at least 30 seconds between successive actuations. An additional 5 shots were then fired to waste with the MDI in a valve up orientation to clean out the valve. The metering valves were then removed from the MDIs and the outside of the stem cleaned to remove any residual drug adhering to the outer surface. The valve was immersed in diluent (acetonitrile:water 75:25 v/v) and sonicated for approximately 2 hours followed by shaking for at least 30 minutes. An aliquot was removed and analyzed for drug content by conventional HPLC analysis (albuterol sulfate and pirbuterol acetate: 55% 100 mM triethylamine phosphate with 5 mM sodium dodecyl sulfate, pH 2.5/45% methanol v:v, UV detection at 225 nm; flunisolide hemihydrate: 60% water/40% acetonitrile v:v, UV detection at 244 nm). Results are reported as an average of 5 to 8 replicates unless otherwise noted.
Individual valve components (stem, tank, spring, ferrule, and bottle emptier) were initially soaked in isopropanol (analytical reagent grade) for 30 minutes while exposed to ultrasonic agitation. Excess solvent was removed and the components were air dried.
The valve components were then immersed in a 0.1% w/w solution of A1 in methyl tertiary butyl ether (analytical reagent grade) in a sealed flask with a vacuum valve that was placed in a sonicator bath. The flask was sonicated and a vacuum was pulled until air escaped from the small bore in the stems (at least 2 minutes). The vacuum valve was then closed and the sample maintained under vacuum and sonication for an additional 30 minutes. Excess coating solution was then removed and the metering valves were rinsed and sonicated under vacuum in fresh isopropanol (analytical reagent grade) for 15 minutes. Excess rinsing solution was then removed and the metering valves were rinsed and sonicated under vacuum a second time in fresh isopropanol (analytical reagent grade) for 15 minutes. Excess rinsing solution was again removed and the metering valves were dried at 50° C. for at least 12 hours. The components were then assembled to form treated metered dose inhaler metering valves.
[…] Approximately 8.7 g of medicinal formulation was added to an aluminum canister with an internal coating of FEP (tetrafluoroethylene/hexafluoropropylene copolymer). The canister was then sealed by crimping a treated valve onto the canister to form an MDI. The MDIs were stored in a valve down orientation after filling to ensure contact of the formulation with the valve. The amount of albuterol sulfate adsorbed to the valve was 112 (+/−25) μg measured according to the valve deposition method described above.

[4] = Drug adsorption to aluminum MDI canister on storage; details: 3 days at room temperature
Experimental: (§1) The internal surface of an aluminum metered dose inhaler canister was treated with compound A1 (n-C4F9—(CH2)11—PO3H2) which may be prepared as described in Example 2 of U.S. Pat. No. 6,824,882, the disclosure of which is hereby incorporated by reference) as follows. The canister was initially soaked in heptane (analytical reagent grade) for 30 minutes while exposed to ultrasonic agitation. The canister was then rinsed with heptane (analytical reagent grade) for one minute followed by a rinse with isopropanol (analytical reagent grade) and allowed to air dry. The canister was then immersed in a 0.1% w/w solution of A1 in methyl tertiary butyl ether (analytical reagent grade) for 30 minutes while exposed to ultrasonic agitation. The canister was then rinsed in methyl tertiary butyl ether (analytical reagent grade) for one minute and allowed to air dry.
Fluticasone propionate was added to HFA-134A propellant to prepare a medicinal formulation with a fluticasone propionate concentration of 0.0083% w/w. Approximately 13 g of medicinal formulation was added to the treated canister which was sealed with an untreated aluminum blind ferrule (i.e., a casing member lacking valve components). The canister was stored in an upright position after filling to prevent contact of the medicinal formulation with the untreated aluminum surface of the blind ferrule. The solution was stored in the canister for 3 days at room temperature. The amount of fluticasone propionate adsorbed to the canister was 2.4% (+/−1.1%) measured according to the method described above.
A canister was prepared and tested as described in Example 1 with the exception that the canister was filled with a 0.0083% w/w formulation of fluticasone propionate in HFA-227. The solution was stored in the canister for 3 days at room temperature. The amount of fluticasone propionate adsorbed to the canister was 9.7% (+/−6.5%) measured according to the method described above.
An untreated aluminum canister was filled with the medicinal formulation of Example 1. The solution was stored in the canister for 3 days at room temperature. The amount of fluticasone propionate adsorbed to the canister was 23.2% (+/−1.5%) measured according to the method described above.
An untreated aluminum canister was filled with the medicinal formulation of Example 2. The solution was stored in the canister for 3 days at room temperature. The amount of fluticasone propionate adsorbed to the canister was 35.5% (+/−1.8%) measured according to the method described above.

[5] = Total drug content of canisters filled from stainless steel filling system (HPLC); details: 0.0083% w/w suspension in HFA-227a
Experimental: The vessel was initially soaked in heptane (analytical reagent grade) for 30 minutes while exposed to ultrasonic agitation. The vessel was then rinsed with heptane (analytical reagent grade) for one minute followed by a rinse with isopropanol (analytical reagent grade) and allowed to air dry. The vessel was then immersed in a 0.1% w/w solution of A1 in methyl tertiary butyl ether (analytical reagent grade) for 30 minutes while exposed to ultrasonic agitation. The vessel was then rinsed in methyl tertiary butyl ether (analytical reagent grade) for one minute and allowed to air dry. Additional components of the filling system that contact medicinal formulation during the filling process (solenoid, tubing, stirring paddles, mixing baffles) were treated in the same manner as the vessel.
HFA-227a (600.7 g) was chilled and added to the filling vessel. […] The total drug content (i.e., drug suspended in formulation, as well as drug adhered to the canister) of 6 representative canisters (numbers 9, 11, 13, 14, 16, and 18 in the filling sequence) was analyzed using high performance liquid chromatography. A target total drug content was calculated based on the exact amount of formulation added to each canister and the nominal concentration in the filling vessel. […]

[6] = Triamcinolone acetonide remaining after storage in stainless steel canister (HPLC); details: 2 mM in ethanol
Experimental: as §1, with “a stainless steel” for “an aluminum”, “(n-C4F9—(CH2)11—PO3H2)” for “(n-C4F9—(CH2)11—PO3H2) which may be prepared as described in Example 2 of U.S. Pat. No. 6,824,882, the disclosure of which is hereby incorporated by reference)”
A triamcinolone stock solution (2 mM) was prepared by adding triamcinolone acetonide to ethanol. The canister was filled with 5 mL of the triamcinolone stock solution, sealed and stored at 70° C. An extract of the triamcinolone solution was taken after one day of storage and analyzed using high performance liquid chromatography to determine remaining drug content. […] An extract of the triamcinolone solution was taken after 7 days of storage and analyzed using high performance liquid chromatography to determine remaining drug content. The amount of triamcinolone acetonide remaining after 7 days was 83.0%.
An untreated stainless steel canister was filled with the medicinal formulation of Example 11. The amount of triamcinolone acetonide remaining after 1 day was 88.0%. An extract of the triamcinolone solution was taken after 7 days of storage and analyzed using high performance liquid chromatography to determine remaining drug content. The amount of triamcinolone acetonide remaining after 7 days was 18.0%.

[7] = A1-treated valve vs untreated valves, 0.02% w/w in HFA-227
[8] = A1-treated valve, 0.02% w/w in HFA-227
[9] = untreated valve, 0.02% w/w in HFA-227
[10] = A1-treated valve, 0.05% w/w and 10% w/w ethanol in HFA-227
[11] = untreated valve, 0.05% w/w and 10% w/w ethanol in HFA-227

% TA remaining ([1]; 24 h, 4 mM): 97.4 (+/−0.1) %
Molecule: CC(C)CCCC(C)CCCC(C)CCCC(C)CCP(=O)(O)O (stereo not drawn) [A2, 1-phosphono-3,7,11,15-tetramethylhexadecane]

% TA remaining ([1]; 24 h, 4 mM): 93.2 (+/−3.6) %
Molecule: CCCCCCCCCCCCCCCCP(=O)(O)O [A3, 1-phosphonohexadecane]

% TA remaining ([1]; 24 h, 4 mM): 71.5 (+/−3.2) %
Molecule: CC(C)CCCC(C)CCCC(C)CCCC(C)CCC(=O)O (stereo not drawn) [A5, Phytanyl carboxylic acid]

visual observation of drug deposition in metering tanks [2, 7]: considerably less drug deposition
amount of drug adsorbed to the valve [3, 8]: 23 (+/−7) μg
amount of drug adsorbed to the valve [3, 9]: 41 (+/−7) μg
Molecule: CC1(C)O[C@@H]2C[C@H]3[C@@H]4C[C@H](F)C5=CC(=O)C=C[C@]5(C)[C@H]4[C@@H](O)C[C@]3(C)[C@]2(C(=O)CO)O1 [flunisolide]

amount of fluticasone propionate adsorbed to the canister ([4]; A1-treated aluminum canister, 0.0083% w/w in HFA-134A): 2.4%
amount of fluticasone propionate adsorbed to the canister ([4]; A1-treated aluminum canister, 0.0083% w/w in HFA-227): 9.7%
amount of fluticasone propionate adsorbed to the canister ([4]; untreated aluminum canister, 0.0083% w/w in HFA-134A): 23.2%
amount of fluticasone propionate adsorbed to the canister ([4]; untreated aluminum canister, 0.0083% w/w in HFA-227): 35.5%
average total drug content in the filled canisters, less than the target total drug content ([5]; A1-treated stainless steel filling system, 6 canisters): 2%
average total drug content in the filled canisters, less than the target total drug content ([5]; untreated stainless steel filling system): 58%
Molecule: CCC(=O)O[C@]1(C(=O)SCF)[C@H](C)C[C@H]2[C@@H]3C[C@H](F)C4=CC(=O)C=C[C@]4(C)[C@@]3(F)[C@@H](O)C[C@@]21C [fluticasone propionate]

Molecule: CC1(C)O[C@@H]2C[C@H]3[C@@H]4CCC5=CC(=O)C=C[C@]5(C)[C@@]4(F)[C@@H](O)C[C@]3(C)[C@]2(C(=O)CO)O1 [triamcinolone acetonide]
% TA remaining ([1]; untreated aluminum oxide powder (C3), 4 mM triamcinolone acetonide in ethanol, 70° C, 1 day): 11.5 (+/−1.2) %
amount of triamcinolone acetonide remaining ([6]; A1-treated stainless steel canister, 70° C, 1 day): 94.9%
amount of triamcinolone acetonide remaining ([6]; A1-treated stainless steel canister, 70° C, 7 days): 83.0%
amount of triamcinolone acetonide remaining ([6]; untreated stainless steel canister, 1 day): 88.0%
amount of triamcinolone acetonide remaining ([6]; untreated stainless steel canister, 7 days): 18.0%

visual observation of drug deposition in metering tanks ([2]; A1-treated valve vs untreated valves, 0.05% w/w in HFA-134A): considerably less drug deposition
visual observation of drug deposition in metering tanks ([2]; A1-treated valve vs untreated valves, 0.05% w/w in HFA-227): considerably less drug deposition
visual observation of drug deposition in metering tanks [2, 10]: minimal drug deposition
visual observation of drug deposition in metering tanks [2, 11]: minimal drug deposition
amount of drug adsorbed to the valve [3, 10]: 67 (+/−18) μg
amount of drug adsorbed to the valve ([3]; A1-treated valve, 0.05% w/w in HFA-134A, stored valve down): 112 (+/−25) μg
amount of drug adsorbed to the valve ([3]; A1-treated valve, 0.05% w/w in HFA-227): 134 (+/−54) μg
amount of drug adsorbed to the valve [3, 11]: 75 (+/−9) μg
amount of drug adsorbed to the valve ([3]; untreated valve, 0.05% w/w in HFA-134A): 138 (+/−24) μg
amount of drug adsorbed to the valve ([3]; untreated valve, 0.05% w/w in HFA-227): 167 (+/−28) μg
Molecule: albuterol sulfate

visual observation of drug deposition in metering tanks [2, 7]: considerably less drug deposition
amount of drug adsorbed to the valve [3, 8]: 36 (+/−13) μg
amount of drug adsorbed to the valve [3, 9]: 43 (+/−12) μg
Molecule: pirbuterol acetate
